Test results from patent US20230174523A1, “BENZENESULFONAMIDE DERIVATIVES AS TRAP1 MODULATORS AND USES THEREOF” (Amathus Therapeutics, Inc., priority 2020, published 2023).

Columns and labels:
[1] = molecular target: T1, TRAP1 enzyme (Homo sapiens, UniProt Q12931); test: Malachite green phosphate assay of TRAP1 ATPase activity; assay type: biochemical; details: for EC50: TRAP1 ATPase activation, 150 nM Trap1, 20 μM ATP, geometric mean, read-out: Malachite Green Fluor DRC: GeoMean EC50; for Emax: read-out: Malachite Green Fluor DRC: Mean Emax
T1 sequence (Q12931 60-704): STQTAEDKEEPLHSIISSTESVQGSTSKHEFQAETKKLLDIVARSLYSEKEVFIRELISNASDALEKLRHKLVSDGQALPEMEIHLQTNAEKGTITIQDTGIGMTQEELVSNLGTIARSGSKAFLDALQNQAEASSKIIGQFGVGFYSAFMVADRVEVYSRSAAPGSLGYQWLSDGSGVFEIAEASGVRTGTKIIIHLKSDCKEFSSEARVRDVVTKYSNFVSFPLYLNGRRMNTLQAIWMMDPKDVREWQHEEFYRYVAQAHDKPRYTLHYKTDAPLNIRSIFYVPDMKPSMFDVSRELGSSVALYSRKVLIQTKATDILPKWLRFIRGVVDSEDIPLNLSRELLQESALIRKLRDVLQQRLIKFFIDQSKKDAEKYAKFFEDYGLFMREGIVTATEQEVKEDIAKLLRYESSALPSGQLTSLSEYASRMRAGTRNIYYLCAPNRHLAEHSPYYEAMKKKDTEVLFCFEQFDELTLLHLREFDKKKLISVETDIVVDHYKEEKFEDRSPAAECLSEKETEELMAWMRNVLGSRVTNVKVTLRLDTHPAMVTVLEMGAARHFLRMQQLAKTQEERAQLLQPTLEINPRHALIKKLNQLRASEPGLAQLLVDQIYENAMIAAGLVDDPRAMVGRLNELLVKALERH
Protocol: The Potency of test compounds to modulate the ATPase activity of TRAP1 enzyme was evaluated using malachite green phosphatase assay. The assay is based on quantification of the green complex formed between Malachite Green, molybdate and inorganic phosphate generated in the phosphatase reaction. Assays were performed using a Malachite Green assay kit. All the assays were carried out in a 96-well transparent plate. The buffer used was 50 mM HEPES (pH 7.5), 20 mM KCl, 4 mM MgCl2 and 0.05% BSA. 150 nM Trap1 enzyme was incubated with various concentrations of the test compound (0.78 μM-100 μM) at 37° C. for 30 mins. 20 μM ATP was added to each well (except blank wells) to start the reaction and the plate was then incubated at 37° C. for 180 mins. 10 μl of the reaction volume of each sample was then transferred to a white 384-well proxiplate in quadruplets. 2.5 μl of Malachite Green reagent was added to all the wells and the plate was equilibrated for 15 mins. The reaction was stopped by adding 12% H2SO4 and the plate was read for fluorescence at 620 nm (λex=573 nm). The amount of phosphate released was estimated from a phosphate standard curve generated at the same experimental conditions. Emax (Maximal percent activation) and EC50 (concentration of test compound for half maximal activation) were estimated by fitting the dose response data to a sigmoidal curve fitting equation using Graphpad Prism software V.7.0.

[2] = molecular target: T1, TRAP1 enzyme; test: ADP Glo assay of TRAP1 ATPase activity; assay type: biochemical; details: for EC50: TRAP1 ATPase activation, 150 nM Trap1, 20 μM ATP, geometric mean, read-out: ADP GLO DRC: GeoMean EC50; for Emax: read-out: ADP GLO DRC: Mean Emax
Procedure, shortened: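 150 nM TRAP1 preincubated with compound (0.79–100 μM) 30 min at 37° C in Pipes pH 7.5 buffer (0.05 mM MgCl2, 40 mM KCl), then 20 μM ATP added for 60 min at 37° C. ADP quantified by ADP-Glo luminescence against ATP/ADP standard curve. Emax and EC50 from sigmoidal fit.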

| EC50 [1] [µM] | Emax [1] [%] | EC50 [2] [µM] | Emax [2] [%] | SMILES |
| --- | --- | --- | --- | --- |
| 10 to 20 | 160 to 199 |  |  | COc1ccc(NC(=O)c2ccccc2C(F)(F)F)cc1S(=O)(=O)N1CCCCC1 [Compound 41] |
| 20 to 100 | 160 to 199 |  |  | COc1ccc(NC(=O)c2cnccc2C)cc1S(=O)(=O)Nc1ccc(C)cc1 [Compound 54] |
| 20 to 100 | 160 to 199 |  |  | COc1ccc(NC(=O)c2cnccc2C)cc1S(=O)(=O)Nc1ccccc1C [Compound 64] |
| 20 to 100 | 160 to 199 |  |  | COc1ccc(NC(=O)c2cnco2)cc1S(=O)(=O)Nc1ccc(Br)cc1 [Compound 91, N-(3-(N-(4-bromophenyl)sulfamoyl)-4-methoxyphenyl) oxazole-5-carboxamide] |
| 20 to 100 | 200 to 300 |  |  | COc1ccc(NC(=O)c2cnc(C(F)(F)F)[nH]2)cc1S(=O)(=O)Nc1ccc(Br)cc1 [Compound 105] |
| 10 to 20 | 200 to 300 |  |  | CC(=O)c1c(C)[nH]c(C(=O)Nc2cccc(S(=O)(=O)N3CCCC3)c2)c1C [Compound 148] |
| 20 to 100 | 160 to 199 |  |  | COc1ccc(NC(=O)c2cnc(-c3ccccc3)[nH]2)cc1S(=O)(=O)N(C)c1ccc(Br)cc1 [Compound 164] |
| 10 to 20 | 200 to 300 |  |  | O=C(Nc1ccc(F)c(S(=O)(=O)Nc2ccc(Br)cc2)c1)c1cnc(-c2ccccc2)[nH]1 [Compound 168] |
| 10 to 20 | 200 to 300 |  |  | O=C(Nc1cccc(S(=O)(=O)Nc2ccc(Br)cc2)c1)c1cnc(-c2ccccc2)[nH]1 [Compound 169] |
| < 10 | 160 to 199 |  |  | CCc1ccc(NC(=O)c2cnc(-c3ccccc3)[nH]2)cc1S(=O)(=O)Nc1ccc(Br)cc1 [Compound 170] |
| < 10 | 200 to 300 |  |  | COc1ccc(NC(=O)c2cnc(-c3ccccc3)[nH]2)cc1S(=O)(=O)Nc1ccc(F)cc1 [Compound 171] |
| < 10 | 160 to 199 |  |  | COc1ccc(NC(=O)c2ncco2)cc1S(=O)(=O)Nc1ccc(Br)cc1 [Compound 172] |
| 10 to 20 | 160 to 199 |  |  | COc1ccc(NC(=O)c2cnc(-c3ccccc3)o2)cc1S(=O)(=O)Nc1ccc(Br)cc1 [Compound 185] |
| 20 to 100 | 200 to 300 |  |  | O=C(Nc1ccc(F)c(S(=O)(=O)Nc2ccc(Br)cc2)c1)c1cnc(C(F)(F)F)[nH]1 [Compound 186] |
| < 10 | 160 to 199 |  |  | COc1ccc(NC(=O)c2cnc(-c3ccccc3)[nH]2)cc1S(=O)(=O)N1Cc2ccc(F)cc2C1 [Compound 200] |
| 10 to 20 | 160 to 199 |  |  | COc1ccc(NC(=O)c2cnc(-c3ccccc3)[nH]2)cc1S(=O)(=O)Nc1ccccc1C [Compound 201] |
| 20 to 100 | 160 to 199 |  |  | COc1ccc(NC(=O)c2cnc(-c3ccccc3)[nH]2)cc1S(=O)(=O)Nc1ccncc1 [Compound 213] |
| < 10 | 200 to 300 |  |  | CCc1ccc(NC(=O)c2cnc(C(F)(F)F)[nH]2)cc1S(=O)(=O)Nc1ccc(Br)cc1 [Compound 216] |
| 10 to 20 | 160 to 199 |  |  | O=C(Nc1ccc(F)c(S(=O)(=O)Nc2ccc(F)cc2)c1)c1cnc(C(F)(F)F)[nH]1 [Compound 220] |
| 10 to 20 | 160 to 199 |  |  | COc1ccc(NC(=O)c2cnc(C(F)(F)F)[nH]2)cc1S(=O)(=O)Nc1ccccc1 [Compound 223] |

| EC50 [1] [µM] | Emax [1] [%] | EC50 [2] [µM] | Emax [2] [%] | SMILES |
| --- | --- | --- | --- | --- |
| 20 to 100 | 123 to 159 |  |  | COc1ccc(NC(=O)c2cnc(C(F)(F)F)[nH]2)cc1S(=O)(=O)Nc1ccc(C)cc1 [Compound 224] |
| 10 to 20 | 160 to 199 |  |  | COc1ccc(NC(=O)c2cnc(C(F)(F)F)[nH]2)cc1S(=O)(=O)N1Cc2cccc(F)c2C1 [Compound 225] |
| 10 to 20 | 200 to 300 |  |  | O=C(Nc1cccc(S(=O)(=O)Nc2ccc(Br)cc2)c1)c1cnc(C(F)(F)F)[nH]1 [Compound 228] |
| 20 to 100 | 160 to 199 |  |  | COc1ccc(NC(=O)c2ncc(C(F)(F)F)[nH]2)cc1S(=O)(=O)Nc1ccc(Br)cc1 [Compound 229, N-(3-(N-(4-bromophenyl)sulfamoyl)-4-methoxyphenyl)-5-(trifluoromethyl)-1H-imidazole-2-carboxamide] |
| < 10 | 123 to 159 |  |  | COc1ccc(NC(=O)c2cnc(C(F)(F)F)[nH]2)cc1S(=O)(=O)Nc1ccccc1C [Compound 232] |
| < 10 | 200 to 300 |  |  | COc1ccc(NC(=O)c2cnc(-c3ccccc3)[nH]2)cc1S(=O)(=O)N(CCCCCC[P+](c1ccccc1)(c1ccccc1)c1ccccc1)c1ccc(Br)cc1 [Compound 242] |
| 10 to 20 | > 300 |  |  | COc1ccc(NC(=O)c2cnc(-c3ccccc3)[nH]2)cc1S(=O)(=O)N(CCCCCC(=O)O)c1ccc(Br)cc1 [Compound 243, 6-((N-(4-bromophenyl)-2-methoxy-5-(2-phenyl-1H-imidazole-5-carboxamido)phenyl)sulfonamido) hexanoic acid] |
| 20 to 100 | 200 to 300 |  |  | COc1ccc(NC(=O)c2cnc[nH]2)cc1S(=O)(=O)N(CCCCCCO)c1ccc(Br)cc1 [Compound 246, N-(3-(N-(4-bromophenyl)-N-(6-hydroxyhexyl)sulfamoyl)-4-methoxyphenyl)-1H-imidazole-5-carboxamide] |
| < 10 | 123 to 159 |  |  | CCOC(=O)CCCCCN(c1ccc(Br)cc1)S(=O)(=O)c1cc(NC(=O)c2ncco2)ccc1OC [Compound 247] |
| 10 to 20 | 200 to 300 |  |  | COc1ccc(NC(=O)c2ncco2)cc1S(=O)(=O)N(CCCCCC(=O)O)c1ccc(Br)cc1 [Compound 250] |
| < 10 | 200 to 300 |  |  | COc1ccc(NC(=O)c2cnc[nH]2)cc1S(=O)(=O)N(CCCCCCBr)c1ccc(Br)cc1 [Compound 251, N-(3-(N-(6-bromohexyl)-N-(4-bromophenyl)sulfamoyl)-4-methoxyphenyl)-1H-imidazole-5-carboxamide] |
| 10 to 20 | 160 to 199 |  |  | COc1ccc(NC(=O)c2cnc(-c3ccccc3)[nH]2)cc1S(=O)(=O)N(CCCCCCO)c1ccc(Br)cc1 [Compound 253] |
| 10 to 20 | 160 to 199 |  |  | COc1ccc(NC(=O)c2ncco2)cc1S(=O)(=O)N(CCCCCCO)c1ccc(Br)cc1 [Compound 255] |
| 20 to 100 | > 300 |  |  | COc1ccc(NC(=O)c2cnc(C(F)(F)F)[nH]2)cc1S(=O)(=O)N(CCCCCCO)c1ccc(Br)cc1 [Compound 257] |
| < 10 | > 300 |  |  | COc1ccc(NC(=O)c2ncco2)cc1S(=O)(=O)N(CCCCCC[P+](c1ccccc1)(c1ccccc1)c1ccccc1)c1ccc(Br)cc1 [Compound 259] |
| < 10 | 160 to 199 |  |  | COc1ccc(NC(=O)c2cnc(C(F)(F)F)[nH]2)cc1S(=O)(=O)N(CCCCCC[P+](c1ccccc1)(c1ccccc1)c1ccccc1)c1ccc(Br)cc1 [Compound 260] |
| 10 to 20 | 200 to 300 |  |  | COc1ccc(NC(=O)c2cnc(C(F)(F)F)[nH]2)cc1S(=O)(=O)N(CCCCCCBr)c1ccc(Br)cc1 [Compound 262] |
|  |  | < 10 | 123 to 159 | COc1ccc(NC(=O)c2coc(-c3cc(F)c(F)c(F)c3)n2)cc1S(=O)(=O)Nc1c(C)csc1C [Compound 2415] |
|  |  | 10 to 20 | 123 to 159 | COc1ccc(NC(=O)c2ncoc2C(C)C)cc1S(=O)(=O)Nc1ccc(Cl)cc1 [Compound 2476] |
|  |  | 20 to 100 | 123 to 159 | COc1ccc(NC(=O)c2ncc(-c3cc(F)c(F)c(F)c3)o2)cc1S(=O)(=O)Nc1c(C)csc1C [Compound 2519] |
